Molecular target: T1, Brunfelsia calycina POD (purified 40-kDa anthocyanin degradation-related peroxidase; BcPrx01 suggested)
T1 construct: native POD purified from petals, close to 40 kDa
Assay: guaiacol/H2O2 peroxidase activity assay with purified POD, absorbance at […] nm
Type: biochemical, Brunfelsia pauciflora var. calycina (Brunfelsia calycina)

Row | Compound | IC50 [µM]
1 | O=C(O[C@@H]1Cc2c(O)cc(O)cc2O[C@H]1c1cc(O)c(O)c(O)c1)c1cc(O)c(O)c(O)c1 [GCG, gallocatechin-3-gallate] | 29.7
2 | O=C(O[C@@H]1Cc2c(O)cc(O)cc2O[C@@H]1c1ccc(O)c(O)c1)c1cc(O)c(O)c(O)c1 [ECG, epicatechin-3-gallate] | 21.5
